In patent publication US10023587B2, “Oxabicycloheptanes and oxabicycloheptenes, their preparation and use” (LIXTE BIOTECHNOLOGY, INC., priority 2007, dated 2018):
Where two headings read alike, the source gives them in different places.

Assays:
HT-29 cells = assay: CellTiter-Glo assay, HT-29; type: cell-based; conditions: Homo sapiens; HT-29 Colon, 72 hr; read-out: IC50 (50% Inhibition of Proliferation)
Protocol: (§1) MDA-MB-231, HT-29, NCI-H460, NCI-H522, NCI-H69, GXF-209, HepG2, OVAR-3, PANC-1, DU-145, LNCAP, HL-60, K-562, and MOLT-4 cell lines were either obtained from the American Type Culture Collection (ATCC; Manassas, Va.), or from the National Cancer Institute (NCI; Frederick, Md.). RPMI-1640 media, L-glutamine dipeptide (HyQ SG-200), and HEPES were obtained from Hyclone (Logan, Utah).
(§2) All cell lines were routinely cultured twice weekly in RPMI-1640 medium supplemented with 2 mM L-glutamine dipeptide, 10 mM HEPES, and 10% FBS.
(§3) The adherent cell lines MDA-MB-231, HT-29, NCI-H460, NCI-H522, GXF-209, HepG2, OVAR-3, PANC-1, DU-145, and LNCAP cells were each seeded into two 96-well plates at 2,500 cells per well in a total volume of 50 uL and incubated in a 37° C. humidified 5% CO2 cell culture incubator overnight. The suspension cell lines NCI-H69, HL-60, K-562, and MOLT-4 were each seeded into two 96-well plates at 10,000 cell per well in a total volume of 50 uL and incubated in a 37° C. humidified 5% CO2 incubator overnight.
(§4) This was followed by making 2× stocks of the final concentrations required in RPMI-1640 medium. […]
(§5) Briefly, plates were removed from the incubator and placed on the bench at room temperatures for 30 minutes. […] Luminescence was then recorded using the PerkinElmer Microbeta scintillation and luminescence counter (Trilux).

NCI-H460 cells = assay: CellTiter-Glo assay, NCI-H460; type: cell-based; conditions: Homo sapiens; NCI-H460 Lung: large cell, 72 hr; read-out: IC50 (50% Inhibition of Proliferation)
Protocol: as §1, §2, §3, §4, §5

GXF-209 cells = assay: CellTiter-Glo assay, GXF-209; type: cell-based; conditions: Homo sapiens; GXF-209 Stomach, 72 hr; read-out: IC50 (50% Inhibition of Proliferation)
Protocol: as §1, §2, §3, §4, §5

HepG2 cells = assay: CellTiter-Glo assay, HepG2; type: cell-based; conditions: Homo sapiens; HepG2 Liver, 72 hr; read-out: IC50 (50% Inhibition of Proliferation)
Protocol: as §1, §2, §3, §4, §5

LNCAP cells = assay: CellTiter-Glo assay, LNCAP; type: cell-based; conditions: Homo sapiens; LNCAP Prostate, 72 hr; read-out: IC50 (50% Inhibition of Proliferation)
Protocol: as §1, §2, §3, §4, §5

HL-60 cells = assay: CellTiter-Glo assay, HL-60; type: cell-based; conditions: Homo sapiens; HL-60 Leukemia promyelocytic, 72 hr; read-out: IC50 (50% Inhibition of Proliferation)
Protocol: as §1, §2, §3, §4, §5

R. arrhizus = assay: Antifungal susceptibility testing (broth dilution), R. arrhizus; type: cell-based, Rhizopus oryzae; conditions: for MIC: Rhizopus arrhizus, read-out: minimum inhibitory concentration (MIC)
Protocol: Anti-fungal testing was completed with a common lot for compounds 100 and 102.
A 10 mg portion of each powder was weighed out and added to 1 ml of sterile distilled water for compound 100 and DMSO for compound 102. The resulting concentration of […] was diluted to a working concentration of 640 μg/ml for each compound. All subsequent dilutions were also made using the respective diluents. Final testing concentrations ranged from 0.125-64 μg/ml.
A total of 23 isolates were tested to include 3 Candida albicans, 3 Candida glabrata, 3 Cryptococcus neoformans, 3 Aspergillus fumigatus, 3 Rhizopus oryzae, 3, Fusarium solani, 3 Pseudallescheria boydii, and 2 […] rubrum. All isolates were clinical isolates submitted to the Fungus Testing Laboratory for evaluation. Antifungal susceptibility testing was accomplished according to the methods outlined in the National Committee for Clinical Laboratory Standards, M-27A2, Reference Method for Broth Dilution Antifungal Susceptibility Testing of Yeasts; Approved Standard, and M38-A “Reference Method for Broth Dilution Antifungal Susceptibility Testing of Conidium-Forming Filamentous Fungi; Approved Standard”. This includes testing in RPMI-1640 with glutamine and without bicarbonate, an inoculum size of 0.5-2.5×10^3 for yeasts or 1-5×10^4 for moulds, and incubation at 35° C. for 24 and 48 hours.

[1] = system: Fourteen Human Cancer Cell Lines; assay: CellTiter-Glo assay, panel of fourteen human cancer cell lines; type: cell-based; conditions: compared with positive comparator doxorubicin
Protocol: as §1, §2, §3, §4, §5

[2] = system: medulloblastoma cell line DAOY; assay: Inhibition of growth of medulloblastoma cell line DAOY; type: cell-based; conditions: over 7 days (FIG. 16)
From the text: For all cell culture experiments, cells are allowed to grow in the presence or absence of different concentrations of drug or in the presence of the vehicle used to dissolve the drug, PBS for compound 100 and DMSO for compound 102. Cell counts are done in triplicate on day 3 and day 7 and inhibition of growth is expressed as a percentage of the number of cells present in the experimental well divided by the number of cells in a control well.

GBM cell line U87 = assay: U87 xenograft tumor growth in SCID mice; type: in vivo; conditions: subcutaneous in SCID mice, ip daily for 20 days (FIG. 17)
Protocol: For in vivo experiments, subcutaneously implanted tumor cells are allowed to grow over 7 days to a size of 5-7 mm. On day 7, drug administration is begun ip daily for 20 days. The maximum perpendicular diameters of the tumor masses are measured every 2 to 5 days. On the 21st day after initiation of treatment, the animals are sacrificed and dissected free of the subcutaneous tissues and measured.

Stability at acid pH = type: physicochemical

Row | SMILES | IC50 (HT-29 cells) | IC50 (NCI-H460 cells) | IC50 (GXF-209 cells) | IC50 (HepG2 cells) | IC50 (LNCAP cells) | IC50 (HL-60 cells) | MIC (R. arrhizus; isolate 07-1870, 24 Hours) | MIC (R. arrhizus; isolate 07-1870, 48 Hours) | minimum inhibitory concentration (MIC) (R. arrhizus; isolate 07-2044, 24 Hours) | minimum inhibitory concentration (MIC) (R. arrhizus; isolate 07-2044, 48 Hours) | minimum inhibitory concentration (MIC) (R. arrhizus; isolate 07-2078, 24 Hours) | minimum inhibitory concentration (MIC) (R. arrhizus; isolate 07-2078, 48 Hours) | Activity against the fourteen cell lines (in words) [1] | Inhibition of growth of DAOY (in words) [2] | Effect on U87 xenograft tumor growth (in words) (GBM cell line U87) | MIC (R. arrhizus; 24 h) | MIC (R. arrhizus; 48 h) | Stability at acid pH (in words) (Stability at acid pH)
1 | CC(C)(C)OC(=O)N1CCN(C(=O)C2C(C(=O)O)[C@H]3CC[C@@H]2O3)CC1 (stereo in doubt) [Compound 102, 4-(3-Carboxy-7oxa-bicyclo[2.2.1]heptane-2-carbonyl)piperazine-1-carboxylic acid tert-butyl ester] | 3.6 µM | 17.5 µM | 5.3 µM | 22.1 µM | 0.48 µM | 6.5 µM | > 64 µg/mL | > 64 µg/mL | >64 µg/mL | >64 µg/mL | >64 µg/mL | >64 µg/mL | significant activity | – | – | – | – | –
2 | CN1CCN(C(=O)C2C(C(=O)O)[C@H]3CC[C@@H]2O3)CC1 (some centres unmarked) [Compound 100, Endothall 4-Methylpiperazine Monoamide] | 5.3 µM | 24.3 µM | 7.9 µM | 31.6 µM | 1.5 µM | 7.7 µM | – | – | >64 µg/mL | >64 µg/mL | >64 µg/mL | >64 µg/mL | significant activity | dose dependent inhibition | supresses the growth | > 64 µg/mL | > 64 µg/mL | stable at acid pH
